The target of one test is T1, full-length Beclin1 (Homo sapiens, UniProt Q14457).
T1 construct: His tag (pQTEV vector, TEV site) (cleaved yes); made in house; host or cells: Escherichia coli BL21 (DE3), by analogy with the DIRAS2/3 chimera
Description: SPR affinity of biotinylated D3S2 peptide for Beclin1. To be noted: SPR Biacore 3000, 25 °C, c-terminal biotinylated D3S2 on SA chip, Beclin1 10 to 270 nM, Langmuir 1:1 fit, unit inferred. It is filed as binding. As to the method:
A DIRAS2/3 chimera construct was generated by replacing the amino acid residues 92–108 of DIRAS3 with 62–78 amino acid residues of DIRAS2. The DIRAS2/3 chimera construct was cloned into pQTEV vector using ligation-independent cloning and transformed into BL21 (DE3) Escherichia coli cells. Cells carrying the DIRAS2/3 chimera constructs were grown at 37 °C until the OD at 600 nm (OD600) reached to 0.6 and protein expression was induced with 0.5 mM isopropyl β-D-1-thiogalactopyranoside. Cultures were grown for an additional 12 h at 18 °C and harvested by centrifugation. Cells were resuspended in lysis buffer containing 50 mM Tris (pH 7.5), 150 mM sodium chloride, 10 mM magnesium chloride, 10 mM Imidazole, 5% glycerol and 1 mM β-mercaptoethanol and lysed using a cell disrupter (Constant Systems, Northamptonshire, UK). The lysate was cleared by centrifugation at 35,000 × g for 2 h at 4 °C. Cleared lysate was passed through a 0.22-μm filter. […]
SPR experiments were performed using a Biacore 3000 optical biosensor (GE Healthcare/Biacore AB) at 25 °C. […] Reference and buffer corrected SPR response was collected and the data was analyzed using Biacore evaluation software. The kinetic parameters and KD value were determined by fitting the sensorgram to a Langmuir 1:1 binding model (BIAevaluation version 4.1.1, GE Healthcare/Biacore AB, Marlborough, MA, USA).
(In general: In SPR one partner is held on a chip, and binding of the other changes the refractive index at the surface.)

Test [1] deals with T2, Beclin1 recombinant protein (UniProt Q14457 1-450).
T2 construct: Beclin1 (BECN1); called full-length Beclin1 in the SPR experiment; The construct is not described beyond 'produced in a similar fashion'; For the chimera the His tag was cleaved with TEV protease; whether this also holds for Beclin1 is surmised; also called BECN1; full-length Beclin1; source: recombinant
Kind of test: peptide or protein array; 15mer peptide array of DIRAS3 residues 1-229 on membrane, overlaid with recombinant Beclin1 at 1 µg/mL in 1% BSA/PBS, 2 h at room temperature; detected with primary and secondary antibody, HRP. To be noted: both partners purified.

Here are results for three molecules from paper PMC6521623, “DIRAS3-Derived Peptide Inhibits Autophagy in Ovarian Cancer Cells by Binding to Beclin1” (Cancers, 2019).

Ends that are not written are not given here.

T1 sequence (Q14457 whole entry): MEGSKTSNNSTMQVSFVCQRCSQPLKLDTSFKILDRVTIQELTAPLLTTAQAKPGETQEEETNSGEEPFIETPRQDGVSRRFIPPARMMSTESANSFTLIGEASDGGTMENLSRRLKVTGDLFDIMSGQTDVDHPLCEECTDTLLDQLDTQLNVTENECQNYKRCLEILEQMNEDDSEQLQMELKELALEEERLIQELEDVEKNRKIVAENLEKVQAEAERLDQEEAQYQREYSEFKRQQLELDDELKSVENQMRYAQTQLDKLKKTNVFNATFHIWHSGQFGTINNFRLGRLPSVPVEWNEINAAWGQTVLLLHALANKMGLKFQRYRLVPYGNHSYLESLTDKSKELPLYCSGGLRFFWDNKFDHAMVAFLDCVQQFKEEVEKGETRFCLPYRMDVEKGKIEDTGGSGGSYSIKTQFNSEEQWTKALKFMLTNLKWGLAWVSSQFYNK
T2 sequence (Q14457 whole entry): as above

As for SKSGDGNRALQRHVIAR [D3S2], at full-length Beclin1 (read-out: association rate constant (ka)), the kon is 62200 M⁻¹ s⁻¹. Moreover, the koff at full-length Beclin1 (read-out: dissociation rate constant (kd)) stood at 0.000125 s⁻¹.

B1: DIRAS3 N-terminus peptides on the DIRAS3 peptide array (residues 15-33) (peptide, UniProt O95661 15-33, looked up)
peptide: KRLRLLPALLILRAFKPHR
notes: DIRAS3, residues 15-33 (N-terminus), a stretch covered by overlapping 15mer peptides of an array covering residues 1-229; The stretch is longer than one 15mer, so several overlapping array spots are meant; also called N-terminus of DIRAS3 (residues 15-33); source: synthetic peptide, SPOT synthesis on membrane (MultiPep RS robot)
For the molecule B1, the binding result in test [1] is recorded as “binds”.

B2: DIRAS3 switch II region peptide on the DIRAS3 peptide array (residues 93-107) (peptide, UniProt O95661 93-107, looked up)
peptide: KSGDGNRALQRHVIA
notes: source: synthetic peptide, SPOT synthesis on membrane (MultiPep RS robot)
In the case of B2, in test [1], the binding result is on record as “binds”.
